Reference: publication PMC9532399, “The lysosomal transporter TAPL has a dual role as peptide translocator and phosphatidylserine floppase” (Nature Communications, 2022)
Changes are numbered by the printed parent chain.

Experiments:
mouse TAPL ΔTMD0 = target: T1, mouse TAPL ΔTMD0 (Mus musculus, UniProt Q9JJ59); test: Peptide transport assay, ΔTMD0 proteoliposomes; type: biochemical; conditions: for Transport activity: peptide 10 mM (sic)
T1 construct: thrombin cleavage site (C); eGFP (C); 10XHis (C); made in house; host or cells: Trichoplusia ni High Five (Hi5) insect cells, baculovirus (pVL1393)
T1 sequence (Q9JJ59 143-762): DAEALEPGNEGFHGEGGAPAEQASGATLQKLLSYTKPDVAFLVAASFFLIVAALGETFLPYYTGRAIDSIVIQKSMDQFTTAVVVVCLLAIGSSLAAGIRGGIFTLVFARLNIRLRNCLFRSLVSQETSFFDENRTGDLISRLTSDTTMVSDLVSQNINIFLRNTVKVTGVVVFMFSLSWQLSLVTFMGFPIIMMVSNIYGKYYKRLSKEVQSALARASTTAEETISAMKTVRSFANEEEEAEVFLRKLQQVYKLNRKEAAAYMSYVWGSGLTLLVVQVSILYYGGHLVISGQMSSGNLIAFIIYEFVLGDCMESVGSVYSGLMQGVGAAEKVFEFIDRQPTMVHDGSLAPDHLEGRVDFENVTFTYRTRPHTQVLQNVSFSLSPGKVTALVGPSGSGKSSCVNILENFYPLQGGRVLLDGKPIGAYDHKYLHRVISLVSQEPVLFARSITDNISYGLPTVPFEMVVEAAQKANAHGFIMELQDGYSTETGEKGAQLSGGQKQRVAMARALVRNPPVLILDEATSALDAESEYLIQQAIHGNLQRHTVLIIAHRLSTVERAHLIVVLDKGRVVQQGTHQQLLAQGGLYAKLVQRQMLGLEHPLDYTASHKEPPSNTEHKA
Procedure: (§1) Proteoliposomes for peptide transport assays were prepared according to the protocol of Zhao et al., with some modifications. Briefly, E. coli polar lipid extract dissolved in chloroform was dried under a gentle stream of nitrogen. The thin film of lipids was placed under a desiccator overnight to completely remove residual chloroform and then hydrated in 1X PBS buffer pH 7.4 (137 mM NaCl, 2.7 mM KCl, 8 mM Na2HPO4, and 2 mM KH2PO4) with 10 mM MgCl2 and 5% (v/v) glycerol. After water bath sonication at 22 °C for 5 min (Powersonic 610, KLEENTEK), the lipid solution was extruded using a Mini-Extruder equipped with a polycarbonate membrane filter (200 nm pore) (Avanti Polar Lipids, Inc.) to obtain unilamellar vesicles, which were destabilized with 0.36% (w/v) DM. The DM-purified protein and lipid suspension were mixed in a 1:50 (w/w) ratio. After incubation at 4 °C for 2 h, the mixture was treated with Bio-Beads SM-2 resin (60 and 120 mg, see above) at 4 °C for a total of 18 h to remove detergent. The proteoliposomes were collected by centrifugation at 200,000×g for 1.5 h at 4 °C and resuspended in the buffer described above.
(§2) The peptide transport activity of ΔTMD0 was measured as described previously. Briefly, 50 μL of ΔTMD0-loaded proteoliposomes (~0.6 μg protein) were added into 200 μL reaction buffer containing 1X PBS pH 7.4, 3 mM ATP, and 10 mM MgCl2 in the presence or absence of 10 μM 5-IAF-labeled peptides. To investigate transport activity, the mixture was incubated at 37 °C for 10 min. The reaction was terminated by incubating the mixture for 20 min on ice. Proteoliposomes were collected by centrifugation at 200,000×g for 30 min and then washed twice with 1X PBS. The proteoliposomes were completely disrupted by adding 10% (w/v) SDS solution (final concentration, 2%). The transported peptide was measured using a microplate reader (Gemini XPS) with excitation at 485 nm and emission at 520 nm.

TAPL Q298A mutant = test: Peptide transport assay, Q298A; type: biochemical, mouse; conditions: 9-mer 10 mM (sic), 3 mM ATP
Procedure: as §1, §2

TAPL Y405A mutant = target: T2, TAPL Y405A mutant (Mus musculus, UniProt Q9JJ59, Y405A); test: Peptide transport assay, Y405A; type: biochemical; conditions: 9-mer 10 mM (sic), 3 mM ATP
T2 construct: thrombin cleavage site (C); eGFP (C); 10XHis (C); made in house; host or cells: Trichoplusia ni High Five (Hi5) insect cells, baculovirus (pVL1393)
T2 sequence (Q9JJ59 143-762 Y405A): T1 sequence (Q9JJ59 143-762) with Y263A
Procedure: as §1, §2

RRYQNSTC^5-IAFL [9-mer, 5-IAF-labeled peptide of 9 residues (RRYQNSTC^5-IAFL)]
peptide transport (mouse TAPL ΔTMD0; ATP-dependent, 5-IAF-labeled peptides): preferentially transported
Transport activity (mouse TAPL ΔTMD0; + 3 mM ATP, 9-mer + ATP set at 100%, 37 °C 10 min, mean n=3): 100%
Transport activity (mouse TAPL ΔTMD0; + 3 mM ATP, replicate I): 101.702%
Transport activity (mouse TAPL ΔTMD0; + 3 mM ATP, replicate II): 98.4079%
Transport activity (mouse TAPL ΔTMD0; + 3 mM ATP, replicate III): 99.8902%
Transport activity (mouse TAPL ΔTMD0; no ATP, 9-mer + ATP set at 100%, mean n=3): 5.331%
Transport activity (mouse TAPL ΔTMD0; no ATP, replicate I): 5.213%
Transport activity (mouse TAPL ΔTMD0; no ATP, replicate II): 5.414%
Transport activity (mouse TAPL ΔTMD0; no ATP, replicate III): 5.365%
Transport activity (TAPL Q298A mutant; replicate I): 88.0035%
Transport activity (TAPL Q298A mutant; replicate II): 84.2917%
Transport activity (TAPL Q298A mutant; replicate III): 85.5798%
Transport activity (TAPL Q298A mutant; wild-type = 100%, mean n=3): 85.9583%
Transport activity (TAPL Y405A mutant; replicate I): 18.1424%
Transport activity (TAPL Y405A mutant; replicate II): 19.1407%
Transport activity (TAPL Y405A mutant; replicate III): 12.1153%
Transport activity (TAPL Y405A mutant; wild-type = 100%, mean n=3): 16.4661%
